Assay: xn = mol fraction of the nth substance listed
Settings: Liquid, Single crystal variable path ultrasonic interferometer operating at 2 MHz

CN(C)C=O [dimethylformamide] + CO
Settings	speed of sound [m/s]
303 K, Frequency=2 MHz / Mass density=801.17 kg/m3, x1 = 0.4	1201.2
303 K, Frequency=2 MHz / Mass density=818.7 kg/m3, x1 = 0.2	1133.8
303 K, Frequency=2 MHz / Mass density=853.8 kg/m3, x1 = 0.6	1249.2
303 K, Frequency=2 MHz / Mass density=888.88 kg/m3, x1 = 0.8	1339.4
303 K, Frequency=2 MHz / Mass density=953.21 kg/m3, x1 = 1	1469.8
308 K, Frequency=2 MHz / Mass density=794.11 kg/m3, x1 = 0.4	1187.4
308 K, Frequency=2 MHz / Mass density=811.76 kg/m3, x1 = 0.2	1126.8
308 K, Frequency=2 MHz / Mass density=852.94 kg/m3, x1 = 0.6	1243.4
308 K, Frequency=2 MHz / Mass density=888.23 kg/m3, x1 = 0.8	1320
308 K, Frequency=2 MHz / Mass density=952.94 kg/m3, x1 = 1	1433.2
313 K, Frequency=2 MHz / Mass density=786.98 kg/m3, x1 = 0.4	1169.2
313 K, Frequency=2 MHz / Mass density=798.81 kg/m3, x1 = 0.2	1110.8
313 K, Frequency=2 MHz / Mass density=846.15 kg/m3, x1 = 0.6	1219.4
313 K, Frequency=2 MHz / Mass density=881.65 kg/m3, x1 = 0.8	1313.2
313 K, Frequency=2 MHz / Mass density=952.66 kg/m3, x1 = 1	1418
318 K, Frequency=2 MHz / Mass density=773.8 kg/m3, x1 = 0.4	1152
318 K, Frequency=2 MHz / Mass density=785.71 kg/m3, x1 = 0.2	1097.7
318 K, Frequency=2 MHz / Mass density=833.33 kg/m3, x1 = 0.6	1208
318 K, Frequency=2 MHz / Mass density=875 kg/m3, x1 = 0.8	1275.4
318 K, Frequency=2 MHz / Mass density=952.38 kg/m3, x1 = 1	1402.2
323 K, Frequency=2 MHz / Mass density=754.49 kg/m3, x1 = 0.4	1136
323 K, Frequency=2 MHz / Mass density=778.44 kg/m3, x1 = 0.2	1095.4
323 K, Frequency=2 MHz / Mass density=803.35 kg/m3, x1 = 0.6	1189
323 K, Frequency=2 MHz / Mass density=868.26 kg/m3, x1 = 0.8	1257.2
323 K, Frequency=2 MHz / Mass density=952.09 kg/m3, x1 = 1	1374.8

CO [methanol] + CN(C)C=O
Settings	speed of sound [m/s]
303 K, Frequency=2 MHz / Mass density=771.9 kg/m3, x2 = 0	1089
308 K, Frequency=2 MHz / Mass density=764.7 kg/m3, x2 = 0	1069.6
313 K, Frequency=2 MHz / Mass density=757.4 kg/m3, x2 = 0	1057.2
318 K, Frequency=2 MHz / Mass density=750 kg/m3, x2 = 0	1033.2
323 K, Frequency=2 MHz / Mass density=718.6 kg/m3, x2 = 0	1008
